Calls of active or inactive are those of the source. No cut-off for these calls is given here.
How the values were obtained:
NIH3T3 [1] = experiment: Antitumor activity against mouse NIH/3T3 cells expressing EML4-ALK L1196M mutant xenografted in nude mouse assessed as tumor stasis at 50 mg/kg, po qd administered for 10 days; type: functional, organism-based
NIH3T3 [2] = experiment: Antitumor activity against mouse NIH/3T3 cells expressing EML4-ALK L1196M mutant xenografted in nude mouse assessed as partial tumor regression at 50 mg/kg, po qd administered for 10 days; type: functional, organism-based
cells [3] = details: Homo sapiens, KARPAS-299, 72 h
Description: Antiproliferative activity against human KARPAS299 cells after 72 hrs by SRB/CCK-8 assay

cells [4] = details: Homo sapiens, SU-DHL-1, 72 h
Description: Antiproliferative activity against human SU-DHL1 cells after 72 hrs by SRB/CCK-8 assay

cells [5] = details: Homo sapiens, SUP-M2, 72 h
Description: Antiproliferative activity against human SUP-M2 cells after 72 hrs by SRB/CCK-8 assay

cells [6] = details: Homo sapiens, NCI-H3122, 72 h
Description: Antiproliferative activity against human NCI-H3122 cells after 72 hrs by SRB/CCK-8 assay

cells [7] = details: Mus musculus, NIH3T3, 72 h
Description: Antiproliferative activity against mouse NIH/3T3 cells expressing wild type EML4-ALK after 72 hrs by SRB/CCK-8 assay

cells [8] = details: Mus musculus, NIH3T3, 72 h; remark: listed apart in the source
Description: Antiproliferative activity against mouse NIH/3T3 cells expressing EML4-ALK L1196 mutant after 72 hrs by SRB/CCK-8 assay

animal or person [9] = details: Mus musculus, NIH3T3, po, 240 h, read-out: TGI
Description: Antitumor activity against mouse NIH/3T3 cells expressing wild type EML4-ALK xenografted in nude mouse assessed as tumor growth inhibition at 50 mg/kg, po qd administered for 10 days

animal or person [10] = details: Mus musculus, NIH3T3, po, 240 h, read-out: TGI; remark: listed apart in the source
Description: Antitumor activity against mouse NIH/3T3 cells expressing EML4-ALK L1196M mutant xenografted in nude mouse assessed as tumor growth inhibition at 50 mg/kg, po qd administered for 10 days

[11] = Antitumor activity against mouse NIH/3T3 cells expressing wild type EML4-ALK xenografted in nude mouse assessed as tumor growth inhibition at 40 mg/kg, po qd administered for 10 days; type: functional; details: NIH3T3, po, 240 h, read-out: TGI
[12] = Antitumor activity against mouse NIH/3T3 cells expressing wild type EML4-ALK xenografted in nude mouse assessed as tumor growth inhibition at 20 mg/kg, po qd administered for 10 days; type: functional; details: NIH3T3, po, 240 h, read-out: TGI
[13] = Antitumor activity against mouse NIH/3T3 cells expressing EML4-ALK L1196M mutant xenografted in nude mouse assessed as tumor growth inhibition at 40 mg/kg, po qd administered for 10 days; type: functional; details: NIH3T3, po, 240 h, read-out: TGI
[14] = Antitumor activity against mouse NIH/3T3 cells expressing EML4-ALK L1196M mutant xenografted in nude mouse assessed as tumor growth inhibition at 20 mg/kg, po qd administered for 10 days; type: functional; details: NIH3T3, po, 240 h, read-out: TGI
[15] = biological target: Hepatocyte growth factor receptor (Homo sapiens, UniProt P08581); experiment: Inhibition of N-terminal His6-tagged recombinant human c-Met (974 residues) expressed in insect Sf21 cells using poly(Glu,Tyr)4:1 as substrate incubated for 60 mins by ELISA
[16] = biological target: Leukocyte tyrosine kinase receptor (Homo sapiens, UniProt P29376); experiment: Inhibition of recombinant LTK (unknown origin) using poly(Glu,Tyr)4:1 as substrate incubated for 60 mins by ELISA
[17] = biological target: Proto-oncogene tyrosine-protein kinase ROS (Homo sapiens, UniProt P08922); experiment: Inhibition of recombinant ROS1 (unknown origin) using poly(Glu,Tyr)4:1 as substrate incubated for 60 mins by ELISA
[18] = biological target: Insulin-like growth factor 1 receptor (Homo sapiens, UniProt P08069); experiment: Inhibition of N-terminal His6-tagged recombinant human IGF-1R (959 residues) expressed in insect Sf21 cells using poly(Glu,Tyr)4:1 as substrate incubated for 60 mins by ELISA
[19] = biological target: Tyrosine-protein kinase receptor UFO (Homo sapiens, UniProt P30530); experiment: Inhibition of recombinant human AXL using poly(Glu,Tyr)4:1 as substrate incubated for 60 mins by ELISA
Chain of Tyrosine-protein kinase receptor UFO (P30530 whole entry): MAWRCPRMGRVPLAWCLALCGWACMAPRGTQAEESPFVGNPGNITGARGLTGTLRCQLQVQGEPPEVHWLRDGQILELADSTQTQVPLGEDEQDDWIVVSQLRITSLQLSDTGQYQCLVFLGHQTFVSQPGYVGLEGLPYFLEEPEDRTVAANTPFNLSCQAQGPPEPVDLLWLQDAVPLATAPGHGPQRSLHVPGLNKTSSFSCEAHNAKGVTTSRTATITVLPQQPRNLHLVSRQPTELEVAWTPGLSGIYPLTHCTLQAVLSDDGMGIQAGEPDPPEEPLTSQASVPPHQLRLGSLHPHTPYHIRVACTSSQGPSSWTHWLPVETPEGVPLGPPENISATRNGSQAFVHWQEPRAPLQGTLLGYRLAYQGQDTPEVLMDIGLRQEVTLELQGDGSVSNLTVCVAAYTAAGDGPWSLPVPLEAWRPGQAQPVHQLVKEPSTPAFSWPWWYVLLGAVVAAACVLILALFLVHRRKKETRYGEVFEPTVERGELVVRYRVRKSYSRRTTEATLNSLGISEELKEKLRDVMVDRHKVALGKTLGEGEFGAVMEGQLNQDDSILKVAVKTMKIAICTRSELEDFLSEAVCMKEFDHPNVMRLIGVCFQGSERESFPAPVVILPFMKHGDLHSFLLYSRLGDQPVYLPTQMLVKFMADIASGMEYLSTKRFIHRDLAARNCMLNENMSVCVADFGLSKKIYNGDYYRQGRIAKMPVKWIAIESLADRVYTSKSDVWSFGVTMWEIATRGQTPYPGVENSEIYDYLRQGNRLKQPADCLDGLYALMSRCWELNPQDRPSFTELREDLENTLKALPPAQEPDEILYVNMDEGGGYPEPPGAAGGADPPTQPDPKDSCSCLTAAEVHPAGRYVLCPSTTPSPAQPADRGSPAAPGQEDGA

[20] = biological target: Tyrosine-protein kinase receptor TYRO3 (Homo sapiens, UniProt Q06418); experiment: Inhibition of N-terminal His6-tagged recombinant human TYRO3 (451 residues) expressed in insect Sf21 cells using poly(Glu,Tyr)4:1 as substrate incubated for 60 mins by ELISA
[21] = biological target: Macrophage-stimulating protein receptor (Homo sapiens, UniProt Q04912); experiment: Inhibition of N-terminal His6-tagged recombinant human Ron (983 residues) expressed in insect Sf21 cells using poly(Glu,Tyr)4:1 as substrate incubated for 60 mins by ELISA
Chain of Macrophage-stimulating protein receptor (Q04912 25-304 limits assumed): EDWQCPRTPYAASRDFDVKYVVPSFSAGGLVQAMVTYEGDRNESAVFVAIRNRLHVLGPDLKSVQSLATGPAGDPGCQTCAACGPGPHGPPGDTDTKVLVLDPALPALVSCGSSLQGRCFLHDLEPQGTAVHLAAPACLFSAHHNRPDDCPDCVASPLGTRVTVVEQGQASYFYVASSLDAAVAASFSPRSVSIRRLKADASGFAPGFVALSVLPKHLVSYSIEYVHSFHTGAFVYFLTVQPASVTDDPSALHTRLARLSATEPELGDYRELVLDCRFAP
Chain of Macrophage-stimulating protein receptor (Q04912 310-1400 limits assumed): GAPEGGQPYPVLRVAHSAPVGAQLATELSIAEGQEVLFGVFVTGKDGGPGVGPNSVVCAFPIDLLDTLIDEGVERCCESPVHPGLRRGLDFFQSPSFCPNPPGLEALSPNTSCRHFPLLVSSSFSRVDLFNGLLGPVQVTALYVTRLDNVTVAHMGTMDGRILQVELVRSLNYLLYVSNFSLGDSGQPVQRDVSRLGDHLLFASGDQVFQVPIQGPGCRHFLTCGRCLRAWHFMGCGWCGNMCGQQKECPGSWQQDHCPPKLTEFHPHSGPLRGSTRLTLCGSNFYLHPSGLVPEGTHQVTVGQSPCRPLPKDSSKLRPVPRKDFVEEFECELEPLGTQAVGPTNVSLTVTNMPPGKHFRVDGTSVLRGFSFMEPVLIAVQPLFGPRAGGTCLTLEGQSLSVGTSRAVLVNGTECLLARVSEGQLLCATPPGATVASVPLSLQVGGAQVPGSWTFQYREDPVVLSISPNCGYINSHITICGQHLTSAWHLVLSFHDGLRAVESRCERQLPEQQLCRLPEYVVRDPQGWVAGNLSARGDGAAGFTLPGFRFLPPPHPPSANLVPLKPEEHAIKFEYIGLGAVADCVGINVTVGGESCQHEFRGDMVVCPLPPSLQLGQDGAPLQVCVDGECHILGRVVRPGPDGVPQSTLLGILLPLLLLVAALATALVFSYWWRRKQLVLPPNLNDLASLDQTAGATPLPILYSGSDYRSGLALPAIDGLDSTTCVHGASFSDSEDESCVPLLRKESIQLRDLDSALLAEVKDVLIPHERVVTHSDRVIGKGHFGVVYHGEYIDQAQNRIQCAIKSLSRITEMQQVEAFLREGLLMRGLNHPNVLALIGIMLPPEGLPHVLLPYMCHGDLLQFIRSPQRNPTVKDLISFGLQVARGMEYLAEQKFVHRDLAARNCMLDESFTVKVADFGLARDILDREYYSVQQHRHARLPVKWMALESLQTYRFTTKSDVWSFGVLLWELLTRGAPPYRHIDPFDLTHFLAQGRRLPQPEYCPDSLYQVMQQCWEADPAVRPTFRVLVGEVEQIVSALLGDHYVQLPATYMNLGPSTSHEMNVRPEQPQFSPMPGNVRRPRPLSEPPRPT

[22] = biological target: Vascular endothelial growth factor receptor 2 (Homo sapiens, UniProt P35968); experiment: Inhibition of N-terminal His6-tagged recombinant human KDR (790 residues) expressed in insect Sf21 cells using poly(Glu,Tyr)4:1 as substrate incubated for 60 mins by ELISA
[23] = biological target: Platelet-derived growth factor receptor alpha (Homo sapiens, UniProt P16234); experiment: Inhibition of N-terminal His6-tagged recombinant human PDGFRalpha (550 residues) expressed in insect Sf21 cells using poly(Glu,Tyr)4:1 as substrate incubated for 60 mins by ELISA
Chain of Platelet-derived growth factor receptor alpha (P16234 whole entry): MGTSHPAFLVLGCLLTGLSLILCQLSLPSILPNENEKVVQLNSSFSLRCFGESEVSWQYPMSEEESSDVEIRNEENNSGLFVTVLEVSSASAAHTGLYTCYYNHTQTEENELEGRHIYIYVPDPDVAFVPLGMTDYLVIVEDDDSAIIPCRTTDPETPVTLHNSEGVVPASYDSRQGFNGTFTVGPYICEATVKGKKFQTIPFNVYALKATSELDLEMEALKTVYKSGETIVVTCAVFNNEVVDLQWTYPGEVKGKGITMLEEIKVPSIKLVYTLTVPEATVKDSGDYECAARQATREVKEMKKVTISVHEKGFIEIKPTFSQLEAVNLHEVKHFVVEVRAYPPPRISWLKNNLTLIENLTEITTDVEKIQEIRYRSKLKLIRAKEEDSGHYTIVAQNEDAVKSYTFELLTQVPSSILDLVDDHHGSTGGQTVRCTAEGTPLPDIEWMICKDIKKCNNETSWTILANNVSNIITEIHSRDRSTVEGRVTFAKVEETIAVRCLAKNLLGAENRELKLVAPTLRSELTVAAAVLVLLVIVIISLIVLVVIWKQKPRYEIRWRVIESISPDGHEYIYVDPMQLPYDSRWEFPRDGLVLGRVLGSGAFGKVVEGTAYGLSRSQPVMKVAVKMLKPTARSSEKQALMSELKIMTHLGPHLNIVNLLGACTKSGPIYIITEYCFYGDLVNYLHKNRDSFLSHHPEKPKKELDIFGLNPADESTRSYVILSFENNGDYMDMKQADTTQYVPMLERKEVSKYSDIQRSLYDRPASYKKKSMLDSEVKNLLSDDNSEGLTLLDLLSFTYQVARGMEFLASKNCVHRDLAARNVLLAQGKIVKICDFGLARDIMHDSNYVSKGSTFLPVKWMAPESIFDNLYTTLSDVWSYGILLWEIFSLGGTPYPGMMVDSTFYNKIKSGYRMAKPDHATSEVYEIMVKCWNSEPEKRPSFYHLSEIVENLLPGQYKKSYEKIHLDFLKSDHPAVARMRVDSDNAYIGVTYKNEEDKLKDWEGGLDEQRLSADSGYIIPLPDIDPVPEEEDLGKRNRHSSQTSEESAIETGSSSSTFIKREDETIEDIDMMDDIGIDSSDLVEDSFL

[24] = biological target: Epidermal growth factor receptor (Homo sapiens, UniProt P00533, L858R/T790M); experiment: Inhibition of N-terminal GST-tagged recombinant human EGFR T790M/L858R double mutant (696 residues) expressed in insect Sf21 cells using poly(Glu,Tyr)4:1 as substrate incubated for 60 mins by ELISA
[25] = biological target: Platelet-derived growth factor receptor beta (Homo sapiens, UniProt P09619); experiment: Inhibition of N-terminal His6-tagged recombinant human PDGFRbeta (557 residues) expressed in insect Sf21 cells using poly(Glu,Tyr)4:1 as substrate incubated for 60 mins by ELISA
[26] = biological target: Receptor tyrosine-protein kinase erbB-4 (Homo sapiens, UniProt Q15303); experiment: Inhibition of N-terminal His6-tagged recombinant human ErbB4 (709 to 991 residues) expressed in insect Sf21 cells using poly(Glu,Tyr)4:1 as substrate incubated for 60 mins by ELISA
[27] = biological target: Vascular endothelial growth factor receptor 1 (Homo sapiens, UniProt P17948); experiment: Inhibition of N-terminal GST-tagged recombinant human FLT1 (783 residues) expressed in insect Sf21 cells using poly(Glu,Tyr)4:1 as substrate incubated for 60 mins by ELISA
[28] = biological target: Receptor-type tyrosine-protein kinase FLT3 (Homo sapiens, UniProt P36888); experiment: Inhibition of N-terminal GST-tagged recombinant human FLT3 (564 residues) expressed in insect Sf21 cells using poly(Glu,Tyr)4:1 as substrate incubated for 60 mins by ELISA
[29] = biological target: Proto-oncogene tyrosine-protein kinase Src (Homo sapiens, UniProt P12931); experiment: Inhibition of recombinant human c-Src expressed in insect Sf9 cells using poly(Glu,Tyr)4:1 as substrate incubated for 60 mins by ELISA
Chain of Proto-oncogene tyrosine-protein kinase Src (P12931 2-536 limits assumed): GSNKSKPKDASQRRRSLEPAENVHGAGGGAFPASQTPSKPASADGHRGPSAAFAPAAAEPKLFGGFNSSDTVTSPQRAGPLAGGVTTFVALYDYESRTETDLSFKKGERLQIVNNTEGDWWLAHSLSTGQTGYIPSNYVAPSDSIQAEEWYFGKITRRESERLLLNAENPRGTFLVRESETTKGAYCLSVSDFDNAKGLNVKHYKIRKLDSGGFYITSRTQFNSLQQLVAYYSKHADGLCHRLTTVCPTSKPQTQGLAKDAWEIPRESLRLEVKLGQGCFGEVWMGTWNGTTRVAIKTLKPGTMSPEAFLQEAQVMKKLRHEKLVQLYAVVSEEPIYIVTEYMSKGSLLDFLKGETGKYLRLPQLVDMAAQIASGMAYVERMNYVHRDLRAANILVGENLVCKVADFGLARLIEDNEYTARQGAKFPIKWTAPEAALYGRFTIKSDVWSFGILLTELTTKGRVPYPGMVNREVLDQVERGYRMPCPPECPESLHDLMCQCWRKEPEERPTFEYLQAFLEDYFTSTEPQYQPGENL

[30] = biological target: Tyrosine-protein kinase ABL1 (Mus musculus, UniProt P00520); experiment: Inhibition of N-terminal His6-tagged recombinant mouse ABL (27 to 1123 residues) expressed in insect Sf21 cells using poly(Glu,Tyr)4:1 as substrate incubated for 60 mins by ELISA
[31] = biological target: Fibroblast growth factor receptor 1 (Homo sapiens, UniProt P11362); experiment: Inhibition of N-terminal GST-tagged recombinant human FGFR1 (456 to 765 residues) expressed in insect Sf21 cells using poly(Glu,Tyr)4:1 as substrate incubated for 60 mins by ELISA
[32] = biological target: Receptor tyrosine-protein kinase erbB-2 (Homo sapiens, UniProt P04626); experiment: Inhibition of human ErbB2 using poly(Glu,Tyr)4:1 as substrate incubated for 60 mins by ELISA
[33] = biological target: Mast/stem cell growth factor receptor Kit (Homo sapiens, UniProt P10721); experiment: Inhibition of N-terminal GST-tagged recombinant human c-Kit (544 residues) expressed in insect Sf21 cells using poly(Glu,Tyr)4:1 as substrate incubated for 60 mins by ELISA
[34] = biological target: T1, Proto-oncogene tyrosine-protein kinase receptor Ret (Homo sapiens, UniProt P07949); experiment: Inhibition of RET (unknown origin) phosphorylation at […] residue in mouse BaF3/CCDC6-RET cells after 1 hr by Western blot analysis; type: cell-based
T1 sequence (P07949 whole entry): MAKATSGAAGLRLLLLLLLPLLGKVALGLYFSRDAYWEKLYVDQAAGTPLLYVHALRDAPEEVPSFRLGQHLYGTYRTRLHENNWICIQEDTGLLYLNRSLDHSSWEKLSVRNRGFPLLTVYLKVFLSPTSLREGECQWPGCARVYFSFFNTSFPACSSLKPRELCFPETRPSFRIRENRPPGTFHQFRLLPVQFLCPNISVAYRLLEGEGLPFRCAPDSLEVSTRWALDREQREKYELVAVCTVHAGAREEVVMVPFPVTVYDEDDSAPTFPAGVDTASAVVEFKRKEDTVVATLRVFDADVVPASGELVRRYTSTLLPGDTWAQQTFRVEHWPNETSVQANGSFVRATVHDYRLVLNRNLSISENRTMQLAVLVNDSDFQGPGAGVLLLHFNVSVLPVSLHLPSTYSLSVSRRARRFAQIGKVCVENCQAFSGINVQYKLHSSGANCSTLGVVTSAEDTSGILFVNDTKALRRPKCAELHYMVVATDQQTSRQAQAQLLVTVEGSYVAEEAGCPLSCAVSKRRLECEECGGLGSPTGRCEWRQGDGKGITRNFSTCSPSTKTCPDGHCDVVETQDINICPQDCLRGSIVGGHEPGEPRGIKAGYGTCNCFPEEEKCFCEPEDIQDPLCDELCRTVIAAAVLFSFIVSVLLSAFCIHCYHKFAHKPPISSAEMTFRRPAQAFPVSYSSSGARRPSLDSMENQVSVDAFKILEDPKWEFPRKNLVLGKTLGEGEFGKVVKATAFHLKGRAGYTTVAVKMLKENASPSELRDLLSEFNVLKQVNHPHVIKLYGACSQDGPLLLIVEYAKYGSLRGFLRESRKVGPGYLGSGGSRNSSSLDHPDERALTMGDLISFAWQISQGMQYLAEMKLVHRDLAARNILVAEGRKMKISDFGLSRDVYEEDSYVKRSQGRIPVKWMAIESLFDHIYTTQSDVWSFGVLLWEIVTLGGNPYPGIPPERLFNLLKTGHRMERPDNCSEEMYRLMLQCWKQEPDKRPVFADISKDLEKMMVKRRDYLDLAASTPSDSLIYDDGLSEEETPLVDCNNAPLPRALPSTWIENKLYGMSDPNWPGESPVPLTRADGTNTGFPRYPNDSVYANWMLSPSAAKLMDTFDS

[35] = biological target: T1, Proto-oncogene tyrosine-protein kinase receptor Ret; experiment: Inhibition of RET (unknown origin) in mouse BaF3/CCDC6-RET cells assessed as suppression of ERK1/2 phosphorylation at T202/Y204 residue after 1 hr by Western blot analysis; type: cell-based
[36] = biological target: T1, Proto-oncogene tyrosine-protein kinase receptor Ret; experiment: Inhibition of RET (unknown origin) in mouse BaF3/CCDC6-RET cells assessed as suppression of AKT phosphorylation at S473 residue after 1 hr by Western blot analysis; type: cell-based
[37] = biological target: T1, Proto-oncogene tyrosine-protein kinase receptor Ret; experiment: Inhibition of RET (unknown origin) in mouse BaF3/CCDC6-RET cells assessed as suppression of STAT3 phosphorylation at Y705 residue after 1 hr by Western blot analysis; type: cell-based
NIH3T3 [38] = experiment: Antitumor activity against mouse NIH/3T3 cells expressing wild type EML4-ALK xenografted in nude mouse assessed as tumor stasis at 20 to 40 mg/kg, po qd administered for 10 days; type: functional, organism-based
NIH3T3 [39] = experiment: Antitumor activity against mouse NIH/3T3 cells expressing wild type EML4-ALK xenografted in nude mouse assessed as partial tumor regression at 20 to 40 mg/kg, po qd administered for 10 days; type: functional, organism-based
NIH3T3 [40] = experiment: Antitumor activity against mouse NIH/3T3 cells expressing EML4-ALK L1196M mutant xenografted in nude mouse assessed as tumor stasis at 40 mg/kg, po qd administered for 10 days; type: functional, organism-based
NIH3T3 [41] = experiment: Antitumor activity against mouse NIH/3T3 cells expressing EML4-ALK L1196M mutant xenografted in nude mouse assessed as partial tumor regression at 40 mg/kg, po qd administered for 10 days; type: functional, organism-based
Mus musculus = experiment: Toxicity in nude mouse assessed as weight loss at 20 to 40 mg/kg, po qd administered for 10 days; type: organism-based; details: in vivo, 240 h
[42] = biological target: T1, Proto-oncogene tyrosine-protein kinase receptor Ret; experiment: biochemical

## CCc1cc2c(cc1N1CCC(N3CCOCC3)CC1)C(C)(C)c1[nH]c3cc(C#N)ccc3c1C2=O [ALECTINIB]
NIH3T3 [1]
  Activity: Active
NIH3T3 [2]
  Activity: Active
Cells [3]
  IC50: 15 nM
Cells [4]
  IC50: 20.5 nM
Cells [5]
  IC50: 17.9 nM
Cells [6]
  IC50: 17.4 nM
Cells [7]
  IC50: 32.3 nM
Cells [8]
  IC50: 132 nM
Animal or person [9]
  inhibition in vivo at 50 mg/kg: 103%
Animal or person [10]
  inhibition in vivo at 50 mg/kg: 83.5%

## CC1(C)c2cc(C3CCN(CC4CCOCC4)CC3)ccc2C(=O)c2c1[nH]c1cc(C#N)ccc21
[11]
  inhibition in vivo at 40 mg/kg: 102%
[12]
  inhibition in vivo at 20 mg/kg: 102%
[13]
  inhibition in vivo at 40 mg/kg: 87.3%
[14]
  inhibition in vivo at 20 mg/kg: 56.9%
[15]
  IC50: > 1000 nM
[16]
  IC50: 43.1 nM
[17]
  IC50: > 1000 nM
[18]
  IC50: 27.8 nM
[19]
  IC50: 170 nM
[20]
  IC50: 71.9 nM
[21]
  IC50: 93.4 nM
[22]
  IC50: 104 nM
[23]
  IC50: 402 nM
[24]
  IC50: 350 nM
[25]
  IC50: 64.2 nM
[26]
  IC50: 213 nM
[27]
  IC50: 159 nM
[28]
  IC50: 85.7 nM
[29]
  IC50: 75.4 nM
[30]
  IC50: > 1000 nM
[31]
  IC50: > 1000 nM
[32]
  IC50: > 1000 nM
[33]
  IC50: > 1000 nM
[34]
  inhibition: Dose-dependent effect
[35]
  inhibition: Dose-dependent effect
[36]
  inhibition: Dose-dependent effect
[37]
  inhibition: Dose-dependent effect
NIH3T3 [38]
  Activity: Active
NIH3T3 [39]
  Activity: Active
NIH3T3 [40]
  Activity: Active
NIH3T3 [41]
  Activity: Active
Mus musculus
  Activity: Non-toxic
Cells [3]
  IC50: 44.8 nM
Cells [4]
  IC50: 48.3 nM
Cells [5]
  IC50: 22.9 nM
Cells [6]
  IC50: 43.3 nM
Cells [7]
  IC50: 46.7 nM
Cells [8]
  IC50: 196 nM
[42]
  IC50: 1.6 nM

— ChEMBL document CHEMBL3826932, “An orally available tyrosine kinase ALK and RET dual inhibitor bearing the tetracyclic benzo[b]carbazolone core” (Eur J Med Chem, 2016)
